Values quoted from earlier work, collected in patent US10822355B2, “Ultralow-power near infrared lamp light operable targeted organic nanoparticle photodynamic therapy” (University of Massachusetts, priority 2016, dated 2020).

Columns and labels:
[1] = for ε: at 525 nm (B-1), 630 nm (B-2), 661 nm (B-3); for ΦF (%) / ε/10^5 M^−1 cm^−1 / λabs (max) / λem (max): literature values (References S2, S6, S7)
[2] = for ΦΔ (%): literature values (References S2, S6, S7)

| ε [1] [M⁻¹ cm⁻¹] | ΦF (%) [1] [%] | ε/10^5 M^−1 cm^−1 [1] | λabs (max) [1] | λem (max) [1] | Molecule | ΦΔ (%) [2] [%] | ΦΔ of reference ([2]; in dichloromethane) |
| --- | --- | --- | --- | --- | --- | --- | --- |
| 85000 | 3 | 0.85 10^5 M^−1 cm^−1 | 529 | 548 | 2,6-diiodio-BODIPY [B-1] | 79.5 | – |
| 77000 | 5 | 0.77 10^5 M^−1 cm^−1 | 630 | 654 | 2,6-diiodiodistyl-BODIPY [B-2] | 69.0 | – |
| 98000 | 7 | 0.98 10^5 M^−1 cm^−1 | 661 | 689 | 2,6-diiodiodistyl-BODIPY [B-3] | 61.2 | – |
| – | – | – | – | – | CN(C)c1ccc2nc3ccc(=[N+](C)C)cc-3sc2c1 [methyl blue, methylene blue] | – | 0.52 |
